15 compounds from US20250230193A1, “CYCLIC COMPOUND HAVING SELECTIVE KRAS INHIBITORY EFFECT ON HRAS AND NRAS” (CHUGAI SEIYAKU KABUSHIKI KAISHA, priority 2022, published 2025) can be followed below.

Assay [1] deals with GDP-bound NRAS wild-type protein (Homo sapiens, UniProt P01111). In words: Binding to NRAS by surface plasmon resonance (SPR), Single Cycle Kinetics. The note with it: SPR, GDP-bound NRAS wild-type vs GDP-bound KRAS wild-type. (In general: Surface plasmon resonance follows binding to a sensor surface in real time, without labels.)
Sequence of GDP-bound NRAS wild-type protein (P01111 whole entry): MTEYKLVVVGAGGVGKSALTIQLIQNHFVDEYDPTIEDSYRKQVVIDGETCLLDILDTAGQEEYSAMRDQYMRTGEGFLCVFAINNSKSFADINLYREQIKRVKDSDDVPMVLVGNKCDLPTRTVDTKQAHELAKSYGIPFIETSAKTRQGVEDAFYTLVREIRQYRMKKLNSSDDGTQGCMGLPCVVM
The target in assay [2] is GDP-bound HRAS wild-type protein (Homo sapiens, UniProt P01112). The experiment in a line: Binding to HRAS by surface plasmon resonance (SPR), Single Cycle Kinetics. The following applies: SPR, GDP-bound HRAS wild-type vs GDP-bound KRAS wild-type.
Sequence of GDP-bound HRAS wild-type protein (P01112 whole entry): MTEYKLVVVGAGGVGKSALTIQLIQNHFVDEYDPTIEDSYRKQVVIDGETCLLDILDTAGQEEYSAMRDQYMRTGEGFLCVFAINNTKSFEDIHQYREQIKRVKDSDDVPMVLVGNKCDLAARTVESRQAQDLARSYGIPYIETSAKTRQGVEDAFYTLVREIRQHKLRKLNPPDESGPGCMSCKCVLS

With `CCOC[C@H]1C(=O)N[C@@H]([C@@H](C)CC)C(=O)N2CCC[C@H]2C(=O)N(C)[C@H]2C/C=C\CCN(C2=O)[C@@H](CC2CCC(F)(F)CC2)C(=O)N(C)CC(=O)N[C@@H](CCc2ccc(C(F)(F)F)c(OC)c2)C(=O)N2C[C@H](OCC)C[C@H]2C(=O)N(C)C2(CCC2)C(=O)N(C)[C@@H](C(CC)CC)C(=O)N(C)[C@H](C(=O)N(C)C)CC(=O)N1C` [PP2355], in assay [1], the “NRAS/KRAS (ratio of KD value with respect to NRAS to KD value with respect to KRAS)” value is “AA (a compound having 20 or more is denoted as AA)”. Further, in assay [2], the “HRAS/KRAS (ratio of KD value with respect to HRAS to KD value with respect to KRAS)” value was “A (a compound having 10 or more and less than 20 is denoted as A)”.
For the compound `CCC[C@H]1C(=O)N[C@@H]([C@@H](C)CC)C(=O)N2CCC[C@H]2C(=O)N(C)[C@H]2C/C=C\CCN(C2=O)[C@@H](CC2CCC(F)(F)CC2)C(=O)N(C)CC(=O)N[C@@H](CCc2ccc(C(F)(F)F)c(OC)c2)C(=O)N2C[C@H](OCC)C[C@H]2C(=O)N(C)C2(CCC2)C(=O)N(C)[C@@H](C2CCCC2)C(=O)N(C)[C@H](C(=O)N(C)C)CC(=O)N1C` [PP2356], in assay [1], the “NRAS/KRAS (ratio of KD value with respect to NRAS to KD value with respect to KRAS)” value is “A (a compound having 10 or more and less than 20 is denoted as A)”. Further, the “HRAS/KRAS (ratio of KD value with respect to HRAS to KD value with respect to KRAS)” value in assay [2] is “A (a compound having 10 or more and less than 20 is denoted as A)”.
Take `CCCOC[C@H]1C(=O)N[C@@H]([C@@H](C)CC)C(=O)N2CCC[C@H]2C(=O)N(C)[C@H]2C/C=C\CCN(C2=O)[C@@H](CC2CCC(F)(F)CC2)C(=O)N(C)CC(=O)N[C@@H](CCc2ccc(C(F)(F)F)c(OC)c2)C(=O)N2C[C@H](OCC)C[C@H]2C(=O)N(C)C2(CCC2)C(=O)N(C)[C@@H](C2CCCC2)C(=O)N(C)[C@H](C(=O)N(C)C)CC(=O)N1C` [PP2357]: the “NRAS/KRAS (ratio of KD value with respect to NRAS to KD value with respect to KRAS)” value in assay [1] was “A (a compound having 10 or more and less than 20 is denoted as A)”. Moreover, the “HRAS/KRAS (ratio of KD value with respect to HRAS to KD value with respect to KRAS)” value in assay [2] is “B (a compound having 3 or more and less than 10 is denoted as B)”.
`CCC[C@H]1C(=O)N[C@@H]([C@@H](C)CC)C(=O)N(C)CC(=O)N(C)[C@H]2C/C=C\CCN(C2=O)[C@@H](Cc2ccc(C(F)(F)F)cc2)C(=O)N(C)CC(=O)N[C@@H](CCc2ccc(C(F)(F)F)c(OC)c2)C(=O)N2C[C@@H](C)C[C@H]2C(=O)N(C)C2(CCC2)C(=O)N(C)[C@@H](C2CCCC2)C(=O)N(C)[C@H](C(=O)N(C)C)CC(=O)N1C` [PP2358]: the “NRAS/KRAS (ratio of KD value with respect to NRAS to KD value with respect to KRAS)” value in assay [1] was “A (a compound having 10 or more and less than 20 is denoted as A)”. Moreover, the “HRAS/KRAS (ratio of KD value with respect to HRAS to KD value with respect to KRAS)” value in assay [2] is “B (a compound having 3 or more and less than 10 is denoted as B)”.
`CCOC[C@H]1C(=O)N[C@@H]([C@@H](C)CC)C(=O)N(C)CC(=O)N(C)[C@H]2C/C=C\CCN(C2=O)[C@@H](Cc2ccc(C(F)(F)F)cc2)C(=O)N(C)CC(=O)N[C@@H](CCc2ccc(C(F)(F)F)c(OC)c2)C(=O)N2C[C@@H](C)C[C@H]2C(=O)N(C)C2(CCC2)C(=O)N(C)[C@@H](C2CCCC2)C(=O)N(C)[C@H](C(=O)N(C)C)CC(=O)N1C` [PP2359]: the “NRAS/KRAS (ratio of KD value with respect to NRAS to KD value with respect to KRAS)” value in assay [1] was “A (a compound having 10 or more and less than 20 is denoted as A)”. The “HRAS/KRAS (ratio of KD value with respect to HRAS to KD value with respect to KRAS)” value in assay [2] was “B (a compound having 3 or more and less than 10 is denoted as B)”.
In the case of `CCC[C@H]1C(=O)N[C@@H]([C@@H](C)CC)C(=O)N(C2CC2)CC(=O)N(C)[C@H]2C/C=C\CCN(C2=O)[C@@H](Cc2ccc(C(F)(F)F)cc2)C(=O)N(C)CC(=O)N[C@@H](CCc2ccc(C(F)(F)F)c(OC)c2)C(=O)N2C[C@@H](C)C[C@H]2C(=O)N(C)C2(CCC2)C(=O)N(C)[C@@H](C2CCCC2)C(=O)N(C)[C@H](C(=O)N(C)C)CC(=O)N1C` [PP2360], the “NRAS/KRAS (ratio of KD value with respect to NRAS to KD value with respect to KRAS)” value in assay [1] was “A (a compound having 10 or more and less than 20 is denoted as A)”. Further, the “HRAS/KRAS (ratio of KD value with respect to HRAS to KD value with respect to KRAS)” value in assay [2] is “B (a compound having 3 or more and less than 10 is denoted as B)”.
In the case of `CCC[C@H]1C(=O)N[C@@H]([C@@H](C)CC)C(=O)N2CCC[C@H]2C(=O)N(C)[C@H]2C/C=C\CCN(C2=O)[C@@H](Cc2ccc(C(F)(F)F)cc2)C(=O)N(C)CC(=O)N[C@@H](CCc2ccc(C(F)(F)F)c(OC)c2)C(=O)N2C[C@@H](C)C[C@H]2C(=O)N(C)C2(CCC2)C(=O)N(C)[C@@H](C2CCCC2)C(=O)N(C)[C@H](C(=O)N(C)C)CC(=O)N1C` [PP2362], in assay [1], the “NRAS/KRAS (ratio of KD value with respect to NRAS to KD value with respect to KRAS)” value was “A (a compound having 10 or more and less than 20 is denoted as A)”. For the same compound, in assay [2], the “HRAS/KRAS (ratio of KD value with respect to HRAS to KD value with respect to KRAS)” value is “A (a compound having 10 or more and less than 20 is denoted as A)”.
As for `CCOC[C@H]1C(=O)N[C@@H]([C@@H](C)CC)C(=O)N2CCC[C@H]2C(=O)N(C)[C@H]2C/C=C\CCN(C2=O)[C@@H](Cc2ccc(C(F)(F)F)cc2)C(=O)N(C)CC(=O)N[C@@H](CCc2ccc(C(F)(F)F)c(OC)c2)C(=O)N2C[C@@H](C)C[C@H]2C(=O)N(C)C2(CCC2)C(=O)N(C)[C@@H](C2CCCC2)C(=O)N(C)[C@H](C(=O)N(C)C)CC(=O)N1C` [PP2363], in assay [1], the “NRAS/KRAS (ratio of KD value with respect to NRAS to KD value with respect to KRAS)” value was “A (a compound having 10 or more and less than 20 is denoted as A)”. Further, the “HRAS/KRAS (ratio of KD value with respect to HRAS to KD value with respect to KRAS)” value in assay [2] was “B (a compound having 3 or more and less than 10 is denoted as B)”.
For `CCC[C@H]1C(=O)N[C@@H]([C@@H](C)CC)C(=O)N(C)CC(=O)N(C)[C@H]2C/C=C\CCN(C2=O)[C@@H](Cc2ccc(C)cc2)C(=O)N(C)CC(=O)N[C@@H](CCc2ccc(C(F)(F)F)c(OC)c2)C(=O)N2C[C@@H](C)C[C@H]2C(=O)N(C)C2(CCC2)C(=O)N(C)[C@@H](C2CCCC2)C(=O)N(C)[C@H](C(=O)N(C)C)CC(=O)N1C` [PP2364], the “NRAS/KRAS (ratio of KD value with respect to NRAS to KD value with respect to KRAS)” value in assay [1] is “A (a compound having 10 or more and less than 20 is denoted as A)”. The “HRAS/KRAS (ratio of KD value with respect to HRAS to KD value with respect to KRAS)” value in assay [2] was “B (a compound having 3 or more and less than 10 is denoted as B)”.
In the case of `CCCOC[C@H]1C(=O)N[C@@H]([C@@H](C)CC)C(=O)N(C)CC(=O)N(C)[C@H]2C/C=C\CCN(C2=O)[C@@H](Cc2ccc(C)cc2)C(=O)N(C)CC(=O)N[C@@H](CCc2ccc(C(F)(F)F)c(OC)c2)C(=O)N2C[C@@H](C)C[C@H]2C(=O)N(C)C2(CCC2)C(=O)N(C)[C@@H](C2CCCC2)C(=O)N(C)[C@H](C(=O)N(C)C)CC(=O)N1C` [PP2365], in assay [1], the “NRAS/KRAS (ratio of KD value with respect to NRAS to KD value with respect to KRAS)” value is “A (a compound having 10 or more and less than 20 is denoted as A)”. Besides, the “HRAS/KRAS (ratio of KD value with respect to HRAS to KD value with respect to KRAS)” value in assay [2] is “B (a compound having 3 or more and less than 10 is denoted as B)”.
Consider `CCC[C@H]1C(=O)N[C@@H]([C@@H](C)CC)C(=O)N(C2CC2)CC(=O)N(C)[C@H]2C/C=C\CCN(C2=O)[C@@H](Cc2ccc(C)cc2)C(=O)N(C)CC(=O)N[C@@H](CCc2ccc(C(F)(F)F)c(OC)c2)C(=O)N2C[C@@H](C)C[C@H]2C(=O)N(C)C2(CCC2)C(=O)N(C)[C@@H](C2CCCC2)C(=O)N(C)[C@H](C(=O)N(C)C)CC(=O)N1C` [PP2366], for which the “NRAS/KRAS (ratio of KD value with respect to NRAS to KD value with respect to KRAS)” value in assay [1] was “A (a compound having 10 or more and less than 20 is denoted as A)”. In addition, in assay [2], the “HRAS/KRAS (ratio of KD value with respect to HRAS to KD value with respect to KRAS)” value was “A (a compound having 10 or more and less than 20 is denoted as A)”.
As to `CCCOC[C@H]1C(=O)N[C@@H]([C@@H](C)CC)C(=O)N(C2CC2)CC(=O)N(C)[C@H]2C/C=C\CCN(C2=O)[C@@H](Cc2ccc(C)cc2)C(=O)N(C)CC(=O)N[C@@H](CCc2ccc(C(F)(F)F)c(OC)c2)C(=O)N2C[C@@H](C)C[C@H]2C(=O)N(C)C2(CCC2)C(=O)N(C)[C@@H](C2CCCC2)C(=O)N(C)[C@H](C(=O)N(C)C)CC(=O)N1C` [PP2367], in assay [1], the “NRAS/KRAS (ratio of KD value with respect to NRAS to KD value with respect to KRAS)” value is “A (a compound having 10 or more and less than 20 is denoted as A)”. Also, the “HRAS/KRAS (ratio of KD value with respect to HRAS to KD value with respect to KRAS)” value in assay [2] is “B (a compound having 3 or more and less than 10 is denoted as B)”.
For the compound `CCC[C@H]1C(=O)N[C@@H]([C@@H](C)CC)C(=O)N2CCC[C@H]2C(=O)N(C)[C@H]2C/C=C\CCN(C2=O)[C@@H](Cc2ccc(C)cc2)C(=O)N(C)CC(=O)N[C@@H](CCc2ccc(C(F)(F)F)c(OC)c2)C(=O)N2C[C@@H](C)C[C@H]2C(=O)N(C)C2(CCC2)C(=O)N(C)[C@@H](C2CCCC2)C(=O)N(C)[C@H](C(=O)N(C)C)CC(=O)N1C` [PP2368], the “NRAS/KRAS (ratio of KD value with respect to NRAS to KD value with respect to KRAS)” value in assay [1] was “A (a compound having 10 or more and less than 20 is denoted as A)”. Also, the “HRAS/KRAS (ratio of KD value with respect to HRAS to KD value with respect to KRAS)” value in assay [2] is “A (a compound having 10 or more and less than 20 is denoted as A)”.
On to `CCCOC[C@H]1C(=O)N[C@@H]([C@@H](C)CC)C(=O)N2CCC[C@H]2C(=O)N(C)[C@H]2C/C=C\CCN(C2=O)[C@@H](Cc2ccc(C)cc2)C(=O)N(C)CC(=O)N[C@@H](CCc2ccc(C(F)(F)F)c(OC)c2)C(=O)N2C[C@@H](C)C[C@H]2C(=O)N(C)C2(CCC2)C(=O)N(C)[C@@H](C2CCCC2)C(=O)N(C)[C@H](C(=O)N(C)C)CC(=O)N1C` [PP2369], for which the “NRAS/KRAS (ratio of KD value with respect to NRAS to KD value with respect to KRAS)” value in assay [1] was “A (a compound having 10 or more and less than 20 is denoted as A)”. In assay [2], the “HRAS/KRAS (ratio of KD value with respect to HRAS to KD value with respect to KRAS)” value was “B (a compound having 3 or more and less than 10 is denoted as B)”.
Consider `CCC[C@H]1C(=O)N[C@@H]([C@@H](C)CC)C(=O)N(C)CC(=O)N(C)[C@H]2C/C=C\CCN(C2=O)[C@@H](CC2CCCCC2)C(=O)N(C)CC(=O)N[C@@H](CCc2ccc(C(F)(F)F)c(OC)c2)C(=O)N2C[C@@H](C)C[C@H]2C(=O)N(C)C2(CCC2)C(=O)N(C)[C@@H](C2CCCC2)C(=O)N(C)[C@H](C(=O)N(C)C)CC(=O)N1C` [PP2370], for which the “NRAS/KRAS (ratio of KD value with respect to NRAS to KD value with respect to KRAS)” value in assay [1] is “B (a compound having 3 or more and less than 10 is denoted as B)”. In addition, in assay [2], the “HRAS/KRAS (ratio of KD value with respect to HRAS to KD value with respect to KRAS)” value is “B (a compound having 3 or more and less than 10 is denoted as B)”.
